Assays:
[1] = system: Staphylococcus aureus ATCC 29213; test: Fluorescence microscopy, Hoechst 33258 / propidium iodide viability; assay type: cell-based; settings: S. aureus ATCC 29213; MIC concentration, 24 h
Description: (§1) Staphylococcus aureus ATCC 29213 and Staphylococcus epidermidis ATCC 12228 strains were treated with tested compounds 2a–2d and 3a–3d at a concentration 1 × MIC for 24h, while untreated cells were used as a growth control. After incubation, the cells were harvested and a suspension of 1 × 10^5 cells/mL in PBS was prepared. Following this, 1 µl of the fluorescent dyes Hoechst 33258 and propidium iodide (15 µg/mL each) (Sigma, St. Louis, MO, USA) were added. The obtained mixture was incubated in the dark at room temperature for 15–20 min. After incubation, the cell suspensions, placed on glass slides, were analyzed under an Olympus IX 70 fluorescence microscope (Shinjuku, Tokyo, Japan), using a 360–370 nm UV filter. Photos were taken at 10 × 20 magnification.

[2] = system: Staphylococcus epidermidis ATCC 12228; test: as above; assay type: cell-based; settings: S. epidermidis ATCC 12228; MIC concentration, 24 h
Description: as §1

[3] = system: S. epidermidis ATCC 12228; test: Synergy with oxacillin and vancomycin, partial checkerboard broth microdilution; assay type: cell-based, Staphylococcus epidermidis; settings: S. epidermidis ATCC 12228; for FIC (Oxa) / FIC (Van): MIC antibiotic in combination/MIC antibiotic alone; for MIC Oxa in Combination: oxacillin with the complex at ½ MIC (NH4PF6 250 µg/mL); for MIC Van in Combination: vancomycin with the complex at ½ MIC (NH4PF6 250 µg/mL)
[4] = system: Supercoiled plasmid pUC57 DNA; test: Cleavage of pUC57 DNA, agarose gel electrophoresis; assay type: biochemical; settings: pUC57, 100, 200 and 300 µM
Description: DNA supercoiling plays a key role in gene expression and genome organization. The agarose gel electrophoresis assay was used to check whether the tested complexes 3a–3c are able to cleave DNA. Supercoiled plasmid pUC57 DNA (4634 bp); Thermo Scientific, ABO Sp. z o.o., Gdansk, Poland), was incubated with tested compounds (100, 200 and 300 µM). Next, loading buffer (1 μL) containing […] bromophenol blue, 0.25% xylene cyanol and 30% glycerol was added to allow the samples to be loaded into 1% w/v agarose gel. Electrophoresis was performed at 75 V in Tris-acetate- EDTA (TAE) buffer. The gel was stained using Midori green advance DNA stain (Genetics, ABO Sp. z o.o., Gdansk, Poland), and visualised under UV light with the BioRad Gel Doc 2000 system using LABWORK software (Hercules, California, USA). All experiments were carried out in triplicate under the same conditions.

S. aureus ATCC 29213 [5] = test: Time-kill test; assay type: cell-based, Staphylococcus aureus; settings: 1 × MIC
Description: (§2) The time-kill experiments were performed as described previously. Briefly, inocula were prepared in TSB medium (TSB; […] BTL Sp. z o.o., Łódź, Poland). All samples were incubated at 35 °C and 80 rpm for varied time intervals (2, 4, 6, 12, 18, 24, 48h). The percentage of dead cells was calculated according to the growth control by determining the number of living cells (CFU/mL) of each tube using the agar plate count method. Samples were immediately serially diluted ten-fold in 0.01 M phosphate buffered saline (PBS, Bimed Lublin S.A., Lublin, Poland) at pH 7.0 and 10 μL aliquots were spot-inoculated in duplicate onto MHA plates. Agar plates were incubated at 37 °C overnight before determining the viable count. Two independent experiments were carried out.

[6] = system: S. epidermidis ATCC 12228; test: Cell lysis (bacteriolysis, OD600); assay type: cell-based, Staphylococcus epidermidis; settings: 1 × MBC
[7] = system: S. epidermidis ATCC 12228; test: Time-kill test; assay type: cell-based, Staphylococcus epidermidis; settings: 1 × MIC
Description: as §2

S. aureus ATCC 29213 [8] = test: Synergy with oxacillin and vancomycin, partial checkerboard broth microdilution; assay type: cell-based, Staphylococcus aureus; settings: S. aureus ATCC 29213; for FIC (Oxa) / FIC (Van): MIC antibiotic in combination/MIC antibiotic alone; for MIC Oxa in Combination: oxacillin with the complex at ½ MIC (NH4PF6 250 µg/mL); for MIC Van in Combination: vancomycin with the complex at ½ MIC (NH4PF6 250 µg/mL)
[9] = system: Staphylococcus aureus ATCC 29213; test: MIC and MBC/MFC by broth microdilution; assay type: cell-based; settings: S. aureus ATCC 29213
Description: (§3) Reference strains of bacteria and fungi: Staphylococcus aureus ATCC 29213, Staphylococcus epidermidis ATCC 12228, Enterococcus faecalis ATCC 29212, Pseudomonas aeruginosa ATCC 25619, Proteus vulgaris ATCC 8427, and Candida albicans ATCC 10231 (Manassas, VA, USA) were used to screen the antimicrobial activity of the arene-ruthenium(II) complexes 3a-3d, NH4PF6 and selected antibiotics. The microorganisms were grown for 24 h (bacteria) or 48 h (fungi) in 35-37 °C in tryptic-soy agar (TSA; BTL Sp. z o.o., Łódź, Poland) or Sabouraud's dextrose agar (SDA; BTL Sp. z o.o., Łódź, Poland) according to nutritional requirements. Microbial suspensions at a density of about 5 × 10^5 CFU/mL were prepared in Mueller-Hinton broth (MHB; BTL Sp. z o.o., Łódź, Poland) or RPMI-1640 medium (Sigma, St. Louis, MO, USA) for bacteria and fungi, respectively. […] Louis, MO, USA). Stock solutions of the lyophilized compounds were freshly prepared in 100% DMSO (POCh, Gliwice, Poland) for the complexes, or in water for injection (Sigma, St. Louis, MO, USA) in the case of antibiotics. […] MIC and MBC/MFC were defined as the lowest concentrations of the compounds inhibiting bacterial/fungal growth or able to kill added microbial inoculum, respectively, and were evaluated as described by […] et al.. Experiments were carried out in duplicate.

[10] = system: Proteus vulgaris ATCC 8427; test: MIC and MBC/MFC by broth microdilution; assay type: cell-based; settings: P. vulgaris ATCC 8427
Description: as §3

[11] = system: Candida albicans ATCC 10231; test: MIC and MBC/MFC by broth microdilution; assay type: cell-based; settings: C. albicans ATCC 10231
Description: as §3

[12] = system: Staphylococcus epidermidis ATCC 12228; test: MIC and MBC/MFC by broth microdilution; assay type: cell-based; settings: S. epidermidis ATCC 12228
Description: as §3

[13] = system: Pseudomonas aeruginosa ATCC 25619; test: MIC and MBC/MFC by broth microdilution; assay type: cell-based; settings: P. aeruginosa ATCC 25619
Description: as §3

[14] = system: Enterococcus faecalis ATCC 29212; test: MIC and MBC/MFC by broth microdilution; assay type: cell-based; settings: E. faecalis ATCC 29212
Description: as §3

Row | Compound | Change in bacterial viability (Hoechst 33258 / PI fluorescence) [1] | Change in bacterial viability (Hoechst 33258 / PI fluorescence) [2] | FIC (Oxa) [3] | FIC (Van) [3] | MIC Oxa in Combination [3] [µg/mL] | MIC Van in Combination [3] [µg/mL] | Cleavage of plasmid DNA, in words [4] | Time-kill: bacteriostatic or bactericidal (S. aureus ATCC 29213 [5]) | Cell lysis, change of OD600 [6] | Time-kill: bacteriostatic or bactericidal [7] | FIC (Oxa) (S. aureus ATCC 29213 [8]) | FIC (Van) (S. aureus ATCC 29213 [8]) | MIC Oxa in Combination (S. aureus ATCC 29213 [8]) [µg/mL] | MIC Van in Combination (S. aureus ATCC 29213 [8]) [µg/mL] | MBC/MFC [9] [µg/mL] | MIC [9] [µg/mL] | MBC/MFC [10] [µg/mL] | MIC [10] [µg/mL] | MBC/MFC [11] [µg/mL] | MIC [11] [µg/mL] | other results
1 | Cc1cc(C)[n+]2n1C(N)=[S+][Ru-]2[Cl].Cc1ccc(C(C)C)cc1.F[P-](F)(F)(F)(F)F [Compound 3a] | Less changes in cell survival | Less changes in cell survival | 0.06 | 0.03 | 0.015 | 0.015 | did not affect DNA structure | bacteriostatic | not found to change OD600 values | bacteriostatic | 1 | 1 | 0.250 | 0.50 | 62.5 | 62.5 | >1000 | >1000 | >1000 | 500 | MBC/MFC [12]: 125 µg/mL; MIC [12]: 125 µg/mL; MBC/MFC [13]: >1000 µg/mL; MIC [13]: >1000 µg/mL; MBC/MFC [14]: 125 µg/mL; MIC [14]: 125 µg/mL
2 | CCc1cc(CC)[n+]2n1C(N)=[S+][Ru-]2[Cl].Cc1ccc(C(C)C)cc1.F[P-](F)(F)(F)(F)F [Compound 3b] | Less changes in cell survival | Less changes in cell survival | 0.06 | 0.03 | 0.015 | 0.015 | able to cut plasmid DNA | bacteriostatic | not found to change OD600 values | bacteriostatic | 0.5 | 0.25 | 0.125 | 0.125 | 62.5 | 62.5 | >1000 | >1000 | >1000 | 1000 | Correlation with Oxa and Van (synergy), in words [3]: synergistic effect in all tested configurations; Correlation with Oxa and Van (synergy), in words (S. aureus ATCC 29213 [8]): synergistic effects; MBC/MFC [12]: 62.5 µg/mL; MIC [12]: 31.2 µg/mL; MBC/MFC [13]: >1000 µg/mL; MIC [13]: >1000 µg/mL; MBC/MFC [14]: 125 µg/mL; MIC [14]: 62.5 µg/mL
3 | [(η^6-p-cymene)Ru(1-[amino(thioxo)methyl]-5-hydroxy-3-phenyl-1H-pyrazole)PF6 [Compound 3c] | greatest changes in bacterial viability | greatest changes in bacterial viability | 0.06 | 0.03 | 0.015 | 0.015 | able to cut plasmid DNA | bacteriostatic | quite moderate decrease in OD600 | bactericidal | 1 | 1 | 0.250 | 0.50 | 31.2 | 15.6 | >1000 | >1000 | >1000 | >1000 | MBC/MFC [12]: 31.2 µg/mL; MIC [12]: 31.2 µg/mL; MBC/MFC [13]: >1000 µg/mL; MIC [13]: >1000 µg/mL; MBC/MFC [14]: 250 µg/mL; MIC [14]: <31.2 µg/mL
